From US20240279201A1, “DUAL WNT SIGNALING PATHWAY INHIBITORS AND AMPK ACTIVATORS FOR TREATMENTS OF DISEASE” (priority 2021, published 2024) come the findings set out here.

One may read the inhibition as the drop in the measured response relative to a control, in per cent. A lower inhibition goes with a response near the control. Usually IC50 stands for the concentration at which inhibition is half-maximal. By CC50 is commonly meant the concentration giving 50% cytotoxicity.

Series [1] concerns Wnt/β-Catenin signaling pathway. In words: Wnt signaling luciferase (TOPflash) reporter gene assay. Format: cell-based. Conditions: for IC50: luciferase reporter gene assay, mean of three independent experiments, read-out: IC50 (nM) to inhibit the Wnt signaling activity. From the text: A dual-luciferase gene reporter assay was used to test inhibitory activities of new compounds on Wnt signaling. […] Therefore, the effects of new compounds on AMPK was examined. […]

The nature of series [2]: Cytotoxicity (CC50) during the luciferase gene reporter assay. Format: cell-based. The note with it: human, HEK293 cells; short treatment duration of the luciferase gene reporter assay.

Structures are written as SMILES. Where only a bound is given, the exact number is not on record here.

Take `Cc1ccccc1-n1nnc(C(=O)Nc2nc3cc(Br)ccc3s2)c1C` [YA4047, N-(5-Bromobenzo[d]thiazol-2-yl)-5-methyl-1-(o-tolyl)-1H-1,2,3-triazole-4-carboxamide]: in series [1], the inhibition at 1 µM was determined as 14% and the IC50 was more than 1000 nM. The compound also displayed a CC50 in series [2] of more than 92 µM.
On to `Cc1ccccc1-n1nnc(C(=O)Nc2nc3ccc([N+](=O)[O-])cc3s2)c1C` [YA4057, 5-Methyl-N-(6-nitrobenzo[d]thiazol-2-yl)-1-(o-tolyl)-1H-1,2,3-triazole-4-carboxamide], for which, in series [1], the IC50 is more than 1000 nM. Also, the CC50 in series [2] is more than 92 µM.
As to `Cc1ccccc1-n1nnc(C(=O)Nc2nc3ccc(Br)cc3s2)c1C` [YA4059, N-(6-Bromobenzo[d]thiazol-2-yl)-5-methyl-1-(o-tolyl)-1H-1,2,3-triazole-4-carboxamide], in series [1], the inhibition at 1 µM turned out to be 31% and the IC50 was more than 1000 nM. The CC50 in series [2] was more than 92 µM.
For `COc1cccc2sc(NC(=O)c3nnn(-c4ccccc4C)c3C)nc12` [YA4061, N-(4-Methoxybenzo[d]thiazol-2-yl)-5-methyl-1-(o-tolyl)-1H-1,2,3-triazole-4-carboxamide], in that order: 27%, more than 1000 nM and more than 92 µM.
For `Cc1ccccc1-n1nnc(C(=O)Nc2nc3ccc(C(F)(F)F)cc3s2)c1C` [YA4063, 5-Methyl-1-(o-tolyl)-N-(6-(trifluoromethyl)benzo[d]thiazol-2-yl)-1H-1,2,3-triazole-4-carboxamide], in that order: 24%, more than 1000 nM and more than 92 µM.
For `Cc1ccccc1-n1nnc(C(=O)Nc2nc3ccc(OC(F)(F)F)cc3s2)c1C` [YA4065, 5-Methyl-1-(o-tolyl)-N-(6-(trifluoromethoxy)benzo[d]thiazol-2-yl)-1H-1,2,3-triazole-4-carboxamide], in that order: 16%, more than 1000 nM and more than 92 µM.
`Cc1ccccc1-n1nnc(C(=O)Nc2nc3ccccc3o2)c1C` [YA4067]: in series [1], the inhibition at 1 µM came out at 14% and the IC50 was more than 1000 nM. The compound further had a CC50 in series [2] of more than 92 µM.
As for `Cc1ccc2nc(NC(=O)c3nnn(-c4ccccc4C)c3C)sc2c1` [YA4069, 5-Methyl-N-(6-methylbenzo[d]thiazol-2-yl)-1-(o-tolyl)-1H-1,2,3-triazole-4-carboxamide], in series [1], the IC50 was found to be 15 nM. Moreover, the CC50 in series [2] was more than 92 µM.
Consider `Cc1ccccc1-n1nnc(C(=O)Nc2nc3ccc(Cl)cc3s2)c1C` [YA4071, N-(6-Chlorobenzo[d]thiazol-2-yl)-5-methyl-1-(o-tolyl)-1H-1,2,3-triazole-4-carboxamide], for which the IC50 in series [1] was 67 nM. In series [2], the CC50 is more than 92 µM.
As to `Cc1ccccc1-n1nnc(C(=O)Nc2ncc(-c3ccccc3)s2)c1C` [YA4085, 5-Methyl-N-(5-phenylthiazol-2-yl)-1-(o-tolyl)-1H-1,2,3-triazole-4-carboxamide], in series [1], the inhibition at 1 µM amounted to 37% and the IC50 is more than 1000 nM. Further, in series [2], the CC50 was more than 92 µM.
As for `Cc1c(C(=O)Nc2nc(-c3ccccc3)cs2)cnn1-c1ccccc1Br` [YA4087, 1-(2-Bromophenyl)-5-methyl-N-(4-phenylthiazol-2-yl)-1H-pyrazole-4-carboxamide], the IC50 in series [1] was more than 1000 nM. Further, the CC50 in series [2] is more than 92 µM.
With `COc1ccc2nc(NC(=O)c3nnn(-c4ccccc4C)c3C)sc2c1` [YA4091, N-(6-Methoxybenzo[d]thiazol-2-yl)-5-methyl-1-(o-tolyl)-1H-1,2,3-triazole-4-carboxamide], in series [1], the inhibition at 1 µM was determined as 12% and the IC50 is more than 1000 nM. Further, the CC50 in series [2] is more than 92 µM.
The corresponding values for `Cc1ccccc1-n1nnc(C(=O)Nc2nc3c(F)cccc3s2)c1C` [YA4093, N-(4-Fluorobenzo[d]thiazol-2-yl)-5-methyl-1-(o-tolyl)-1H-1,2,3-triazole-4-carboxamide] are 37%, more than 1000 nM and more than 92 µM.
Consider `Cc1ccccc1-n1nnc(C(=O)Nc2nc3c(Cl)cccc3s2)c1C` [YA4095, N-(4-Chlorobenzo[d]thiazol-2-yl)-5-methyl-1-(o-tolyl)-1H-1,2,3-triazole-4-carboxamide], for which, in series [1], at 1 µM the inhibition was 8% and the IC50 was more than 1000 nM. In series [2], the CC50 was more than 92 µM.
With `Cc1ccccc1-n1nnc(C(=O)Nc2nc3c(Br)cccc3s2)c1C` [YA4097, N-(4-Bromobenzo[d]thiazol-2-yl)-5-methyl-1-(o-tolyl)-1H-1,2,3-triazole-4-carboxamide], in series [1], the inhibition at 1 µM worked out at 11% and the IC50 is more than 1000 nM. The same compound gave a CC50 in series [2] of more than 92 µM.
In the case of `Cc1ccccc1-n1nnc(C(=O)Nc2nc3cc(F)ccc3s2)c1C` [YA4101, N-(5-Fluorobenzo[d]thiazol-2-yl)-5-methyl-1-(o-tolyl)-1H-1,2,3-triazole-4-carboxamide], the IC50 in series [1] was determined as 16 nM. Besides, the CC50 in series [2] was more than 92 µM.
Turning to `Cc1ccccc1-n1nnc(C(=O)Nc2nc3ccc(F)cc3s2)c1C` [YA4103, N-(6-Fluorobenzo[d]thiazol-2-yl)-5-methyl-1-(o-tolyl)-1H-1,2,3-triazole-4-carboxamide], in series [1], the IC50 is 4 nM. The compound also returned a CC50 in series [2] of more than 92 µM.
Take `Cc1ccccc1-n1nnc(C(=O)Nc2nc(-c3ccccc3)c(-c3ccccc3)s2)c1C` [YA4133, N-(4,5-Diphenylthiazol-2-yl)-5-methyl-1-(o-tolyl)-1H-1,2,3-triazole-4-carboxamide]: in series [1], testing at 1 µM gave an inhibition of 49% and the IC50 was more than 1000 nM. In series [2], this compound yielded a CC50 of more than 92 µM.
Regarding `Cc1ccccc1-n1nnc(C(=O)Nc2nc(-c3ccccc3Br)cs2)c1C` [YA4135], the IC50 in series [1] was more than 1000 nM. Moreover, the CC50 in series [2] was more than 92 µM.
The corresponding values for `Cc1cc(C(=O)Nc2nc3ccccc3s2)c(C)n1-c1ccccc1` [YA4136] are more than 1000 nM and more than 92 µM.
Consider `Cc1ccccc1C1CCC(C(=O)Nc2nc3ccccc3s2)C1` (stereo not drawn) [YA4138], for which the IC50 in series [1] was more than 1000 nM. This compound also registered a CC50 in series [2] of more than 92 µM.
Regarding `Cc1ccc(-c2csc(NC(=O)c3nnn(-c4ccccc4C)c3C)n2)cc1` [YA4141], the IC50 in series [1] is more than 1000 nM. Also, in series [2], the CC50 is more than 92 µM.
The corresponding values for `Cc1ccccc1-n1nnc(C(=O)Nc2nc(-c3ccccc3F)cs2)c1C` [YA4143] are more than 1000 nM and more than 92 µM.
The corresponding values for `Cc1ccccc1-n1nnc(C(=O)Nc2nc(-c3ccccc3Cl)cs2)c1C` [YA4145] are more than 1000 nM and more than 92 µM.
Regarding `Cc1c(C(=O)Nc2nc3ccc(F)cc3s2)nnn1-c1ccccc1F` [YA4155, N-(6-Fluorobenzo[d]thiazol-2-yl)-1-(2-fluorophenyl)-5-methyl-1H-1,2,3-triazole-4-carboxamide], in series [1], 1 µM produced 96% inhibition and the IC50 is 0.4 nM. For the same compound, the CC50 in series [2] was more than 92 µM.
For `CCc1c(C(=O)Nc2nc3ccc(F)cc3s2)nnn1-c1ccccc1F` [YA4165, 5-Ethyl-N-(6-fluorobenzo[d]thiazol-2-yl)-1-(2-fluorophenyl)-1H-1,2,3-triazole-4-carboxamide], in series [1], the IC50 stood at 0.5 nM. This compound yielded a CC50 in series [2] of more than 92 µM.
In the case of `Cc1ccc(-c2csc(NC(=O)c3nnn(-c4ccccc4C)c3C)n2)c(C)c1` [YA4169], the IC50 in series [1] was more than 1000 nM. In series [2], this compound showed a CC50 of more than 92 µM.
As to `Cc1ccccc1-c1csc(NC(=O)c2nnn(-c3ccccc3C)c2C)n1` [YA4171], in series [1], the IC50 was more than 1000 nM. Further, the CC50 in series [2] was more than 92 µM.
Turning to `Cc1ccccc1-n1nnc(C(=O)Nc2nc(-c3ccccn3)cs2)c1C` [YA4173], in series [1], 1 µM produced 7% inhibition and the 50% inhibitory concentration (IC50) was more than 1000 nM. The same compound came in with a 50% cytotoxic concentration (CC50) in series [2] of more than 92 µM.
Turning to `Cc1cc(Br)ccc1-n1nnc(C(=O)Nc2nc3ccccc3s2)c1C` [YA6009], in series [1], the inhibition at 1 µM was 15% and the IC50 is more than 1000 nM. The CC50 in series [2] was more than 92 µM.
For `Cc1c(C(=O)Nc2nc3ccccc3s2)nnn1-c1ccccc1Cl` [YA6027, N-(Benzo[d]thiazol-2-yl)-1-(2-chlorophenyl)-5-methyl-1H-1,2,3-triazole-4-carboxamide], in that order: 98%, 0.8 nM and more than 92 µM.
The corresponding values for `Cc1c(C(=O)Nc2nc3ccccc3s2)nnn1-c1ccccc1` [YA6029, N-(Benzo[d]thiazol-2-yl)-5-methyl-1-phenyl-1H-1,2,3-triazole-4-carboxamide] are 81%, 7.82 nM and more than 92 µM.
`Cc1ccccc1-n1nnc(C(=O)Nc2cnc3ccccc3n2)c1C` [YA6045, 5-Methyl-N-(quinoxalin-2-yl)-1-(o-tolyl)-1H-1,2,3-triazole-4-carboxamide]: the IC50 in series [1] came out at 1.8 nM. Besides, the CC50 in series [2] was more than 92 µM.
Regarding `Cc1ccccc1-n1nnc(C(=O)Nc2ccc3cccnc3n2)c1C` [YA6047, 5-Methyl-N-(1,8-naphthyridin-2-yl)-1-(o-tolyl)-1H-1,2,3-triazole-4-carboxamide], the IC50 in series [1] was more than 1000 nM. For the same compound, the CC50 in series [2] was more than 92 µM.
Regarding `Cc1ccccc1-n1nnc(C(=O)Nc2cccc3cccnc23)c1C` [YA6055, 5-Methyl-N-(quinolin-8-yl)-1-(o-tolyl)-1H-1,2,3-triazole-4-carboxamide], the IC50 in series [1] was more than 1000 nM. In addition, the CC50 in series [2] is more than 92 µM.
Regarding `Cc1ccccc1-n1nnc(C(=O)Nc2ccc3ncccc3c2)c1C` [YA6056, 5-Methyl-N-(quinolin-6-yl)-1-(o-tolyl)-1H-1,2,3-triazole-4-carboxamide], the IC50 in series [1] was more than 1000 nM. Further, in series [2], the CC50 was more than 92 µM.
As for `Cc1ccccc1-n1nnc(C(=O)Nc2ncc3ccccc3n2)c1C` [YA6061, 5-Methyl-N-(quinazolin-2-yl)-1-(o-tolyl)-1H-1,2,3-triazole-4-carboxamide], the IC50 in series [1] is more than 1000 nM. The CC50 in series [2] was more than 92 µM.
On to `Cc1ccccc1-n1nnc(C(=O)Nc2ccc3cc(B4OC(C)(C)C(C)(C)O4)ccc3n2)c1C` [YA6063], for which, in series [1], the IC50 was determined as 148 nM. The CC50 in series [2] is more than 92 µM.
